Data published in patent US10226453B2, “3-(1H-indol-2-yl)-1H-pyrazolo[4,3-B]pyridines and therapeutic uses thereof” (Samumed, LLC, priority 2015, dated 2019).

Legend:
[1] = tested on: primary human mesenchymal stem cells (hMSCs); assay: Induction of chondrogenesis in primary human mesenchymal stem cells (hMSCs), nodule count; assay type: cell-based; settings: 144 h, 6 days; for EC50: concentration required to induce 50% levels of chondrogenesis of TGF-β3 control, read-out: Conc (nM) of 50% TGF-β3 activity; for Emax: relative to TGF-β3 (10 ng/mL) positive control, read-out: Max. Activity as % TGF-β3 activity
Experimental: Representative compounds were screened using primary human mesenchymal stem cells (hMSCs) to determine their ability to induce chondrogenesis (process by which cartilage is developed).
Primary human mesenchymal stem cells (hMSCs) were purchased from Lonza (Walkersville, Md.) and expanded in Mesenchymal Stem Cell Growth Media (Lonza). Cells between passage 3 and 6 were used for the experiments.
Each compound was dissolved in DMSO as a 10 mM stock and used to prepare compound source plates. Serial dilution (1:3, 6-point dose-response curves from 2700 nM to 10 nM) and compound transfer was performed using the ECHO 550 (Labcyte, Sunnyvale, Calif.) into 96-well clear bottom assay plates (Greiner Bio-One) with appropriate DMSO backfill for a final DMSO concentration of 0.03%. hMSCs were plated at 20,000 cells/well in 250 μL/well Incomplete Chondrogenic Induction Medium (Lonza; DMEM, dexamethasone, ascorbate, insulin-transferrin-selenium [ITS supplement], gentamycin-amphotericin [GA-1000], sodium pyruvate, proline and L-glutamine). TGF-β3 (10 ng/mL) was used as a positive control for differentiation while negative control wells were treated with 75 nL DMSO for normalization and calculating EC50 values. Cells were incubated at 37° C. and 5% CO2 for 6 days. To image chondrogenic nodules, the cells were fixed using 4% formaldehyde (Electron Microscopy Sciences), and stained with 2 μg/mL Rhodamine B (Sigma-Aldrich) and 20 μM Nile Red (Sigma-Aldrich) [Johnson K., et. al, A Stem Cell-Based Approach to Cartilage Repair, Science, (2012). 336(6082), 717-721]. The nodules imaged (4 images per well at 4× magnification) by excitation at 531 nm and emission at 625 nm and quantified using the CellInsight CX5 (Thermo Scientific). Number of nodules in each well was normalized to the average of 3 DMSO treated wells on the same plate using Excel (Microsoft Inc.). The normalized averages (fold change over DMSO) of 3 replicate wells for each compound concentration were calculated. Due to solubility limitations of some of the compounds, curve fitting was incomplete leading to inaccurate EC50 determinations.
Using TGF-β3 as a positive control, the concentration of representative compounds required to induce 50% levels of chondrogenesis is reported. In addition, the maximum activity of each compound and the respective dose that each compound reached maximum chondrogenesis activity is reported.

IL-6 (THP-1 cells) = assay: IL-6 inhibition in LPS-stimulated THP-1 human monocyte cells (HTRF); assay type: cell-based; settings: LPS 500 ng/mL; for EC50: 22 hours, IL6 HTRF; for inhibition at 10 µM: given where EC50 >10 μM, read-out: percent inhibition at 10 μM
Method in brief: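 Readout is the 665/620 nm HTRF ratio for secreted IL-6, normalized to DMSO wells, with EC50 from a variable-slope four-parameter fit, or % inhibition at 10 μM when above 10 μM. Cells (1% FBS, 24 h beforehand) got compound for 2 h, then LPS 500 ng/mL for 22 h at 37° C; top dose 10 μM, 0.1% DMSO.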

SMILES | EC50 [1] | EC50 (IL-6 (THP-1 cells)) | Emax [1] | inhibition at 10 µM (IL-6 (THP-1 cells))
CN(C)CCNc1cc(F)cc(-c2cccc3[nH]c(-c4n[nH]c5ccc(-c6cncnc6)nc45)cc23)c1 [Compound 475, N^1-(3-Fluoro-5-(2-(5-(pyrimidin-5-yl)-1H-pyrazolo[4,3-b]pyridin-3-yl)-1H-indol-4-yl)phenyl)-N^2,N^2-dimethylylethane-1,2-diamine] | 10 nM | 18 nM | 181% | 
Cc1ccncc1-c1ccc2[nH]nc(-c3cc4c(-c5cc(F)cc(CNS(C)(=O)=O)c5)cccc4[nH]3)c2n1 [Compound 481, N-(3-Fluoro-5-(2-(5-(4-methylpyridin-3-yl)-1H-pyrazolo[4,3-b]pyridin-3-yl)-1H-indol-4-yl)benzyl)methanesulfonamide] | 900 nM | 101 nM | 143% | 
CN(C)CCNc1cc(F)cc(-c2cccc3[nH]c(-c4n[nH]c5ccc(-c6ccccn6)nc45)cc23)c1 [Compound 476, N^1-(3-Fluoro-5-(2-(5-(pyridin-2-yl)-1H-pyrazolo[4,3-b]pyridin-3-yl)-1H-indol-4-yl)phenyl)-N^2,N^2-dimethylethane-1,2-diamine] |  | 278 nM | 42% | 
FC1(F)CCN(Cc2cncc(-c3ccc4[nH]nc(-c5cc6ccccc6[nH]5)c4n3)c2)C1 [Compound 278, 5-(5-((3,3-Difluoropyrrolidin-1-yl)methyl)pyridin-3-yl)-3-(1H-indol-2-yl)-1H-pyrazolo[4,3-b]pyridine] | 2700 nM | 207 nM | 293% | 
c1cc(-c2ccncc2)c2cc(-c3n[nH]c4ccc(-c5cncc(CN6CCCCC6)c5)nc34)[nH]c2c1 [Compound 127, 5-(5-(Piperidin-1-ylmethyl)pyridin-3-yl)-3-(4-(pyridin-4-yl)-1H-indol-2-yl)-1H-pyrazolo[4,3-b]pyridine] | 2700 nM | 483 nM | 151% | 
CN(C)c1cncc(-c2ccc3[nH]nc(-c4cc5c(-c6ccoc6)cccc5[nH]4)c3n2)c1 [Compound 315, 5-(3-(4-(Furan-3-yl)-1H-indol-2-yl)-1H-pyrazolo[4,3-b]pyridin-5-yl)-N,N-dimethylpyridin-3-amine] | 2700 nM | 1370 nM | 80% | 
CN(C)Cc1cncc(-c2ccc3[nH]nc(-c4cc5ccccc5[nH]4)c3n2)c1 [Compound 265, 1-(5-(3-(1H-Indol-2-yl)-1H-pyrazolo[4,3-b]pyridin-5-yl)pyridin-3-yl)-N,N-dimethylmethanamine] |  | > 10000 nM | 21% | 0%
CCCCC(=O)Nc1cncc(-c2ccc3[nH]nc(-c4cc5c(N6CCCCC6)cccc5[nH]4)c3n2)c1 [Compound 187, N-(5-(3-(4-(Piperidin-1-yl)-1H-indol-2-yl)-1H-pyrazolo[4,3-b]pyridin-5-yl)pyridin-3-yl)pentanamide] | 100 nM | 85 nM | 69% | 
c1cc(-c2ccncc2)c2cc(-c3n[nH]c4ccc(-c5cncc(OCCN6CCCC6)c5)nc34)[nH]c2c1 [Compound 606, 3-(4-(Pyridin-4-yl)-1H-indol-2-yl)-5-(5-(2-(pyrrolidin-1-yl)ethoxy)pyridin-3-yl)-1H-pyrazolo[4,3-b]pyridine] | 900 nM | 27 nM | 74% | 
CN(C)CCNc1cc(F)cc(-c2cccc3[nH]c(-c4n[nH]c5ccc(-c6cncc(CN7CCCCC7)c6)nc45)cc23)c1 [Compound 463, N^1-(3-Fluoro-5-(2-(5-(5-(piperidin-1-ylmethyl)pyridin-3-yl)-1H-pyrazolo [4,3-b]pyridin-3-yl)-1H-indol-4-yl)phenyl)-N^2,N^2-dimethylethane-1,2-diamine] |  | 209 nM | 48% | 
CN(C)CCNc1cc(F)cc(-c2cccc3[nH]c(-c4n[nH]c5ccc(-c6cccnc6)nc45)cc23)c1 [Compound 452, N^1-(3-Fluoro-5-(2-(5-(pyridin-3-yl)-1H-pyrazolo[4,3-b]pyridin-3-yl)-1H-indol-4-yl)phenyl)-N^2,N^2-dimethylethane-1,2-diamine] | 2700 nM | 68 nM | 67% | 

Continued, in another order:

EC50 [1] | EC50 (IL-6 (THP-1 cells)) | SMILES | Emax [1] | inhibition at 10 µM (IL-6 (THP-1 cells))
900 nM | 31 nM | c1cncc(-c2ccc3[nH]nc(-c4cc5c(-c6cccnc6)cccc5[nH]4)c3n2)c1 [Compound 88, 5-(Pyridin-3-yl)-3-(4-(pyridin-3-yl)-1H-indol-2-yl)-1H-pyrazolo[4,3-b] pyridine] | 386% | 
 | 52 nM | O=C(CC1CCNCC1)Nc1cncc(-c2ccc3[nH]nc(-c4cc5c(-c6ccccn6)cccc5[nH]4)c3n2)c1 [Compound 621, 2-(Piperidin-4-yl)-N-(5-(3-(4-(pyridin-2-yl)-1H-indol-2-yl)-1H-pyrazolo[4,3-b]pyridin-5-yl)pyridin-3-yl)acetamide] | 8% | 
 | > 10000 nM | c1ccc(-c2cccc3[nH]c(-c4n[nH]c5ccc(-c6cncnc6)nc45)cc23)nc1 [Compound 167, 3-(4-(Pyridin-2-yl)-1H-indol-2-yl)-5-(pyrimidin-5-yl)-1H-pyrazolo[4,3-b] pyridine] | 41% | 12.8%
 | 741 nM | CN1CCN(c2cccc3[nH]c(-c4n[nH]c5ccc(-c6cncc(NC(=O)c7ccccc7)c6)nc45)cc23)CC1 [Compound 235, N-(5-(3-(4-(4-Methylpiperazin-1-yl)-1H-indol-2-yl)-1H-pyrazolo[4,3-b]pyridin-5-yl)pyridin-3-yl)benzamide] | 19% | 
 | 154 nM | CN(C)Cc1cncc(-c2ccc3[nH]nc(-c4cc5c(-c6cccnc6)cccc5[nH]4)c3n2)c1 [Compound 97, N,N-Dimethyl-1-(5-(3-(4-(pyridin-3-yl)-1H-indol-2-yl)-1H-pyrazolo[4,3-b]pyridin-5-yl)pyridin-3-yl)methanamine] | 36% | 
